# Results as given in patent publication US7700584B2 (Hangzhou Minsheng Pharmaceuticals Co., Ltd., priority 2004, dated 2010).
# Legend:
# [1] = molecular target: T1, HIV-1 proteinase (HIV-1 PR) (Human immunodeficiency virus type 1 group M subtype B, UniProt P04585); test: Screening for in vitro activity against HIV-1 proteinase; format: biochemical; settings: read-out: Inhibition rate, 10 nM
# T1 construct: HIV-1 proteinase digests the fluorescent-labeled substrate; purchased
# Protocol: Principle of the test: HIV-1 proteinase digests the fluorescent-labeled substrate in an optimal reaction condition and system. The activity of the enzyme can be reflected by the fluorescent intensity in the product of the enzyme reaction. Adding a sample into the reaction system can be used for screening the inhibitor of the enzyme.
# 1. HIV-1 PR: commercially available, stored at −85° C.
# 2. Treatment of the samples: Before use, sample was dissolved in DMSO at a suitable concentration, then serially diluted (5×) with double distilled water, five serial dilutions per sample.
# 3. Positive control: indinavir, purchased from […].
# 4. Methods: The diluted sample was added into the reaction buffer containing the fluorescent-labeled substrate. Then the genetic engineered target enzyme was added, and incubated in the optimal reaction condition. The fluorescent value was measured with a FLUO star Galaxy luminoscope.
# [2] = test system: mouse lung cancer Lewis; test: Activity against mouse grafted lung cancer Lewis; format: in vivo, Kunming mice; settings: Lewis, 1 mg/kg; for Tumor weight: X ± SD, n = 10
# Protocol: (§1) The experiments were performed according to “Guideline for New Drugs (Western medicines) in Pre-clinical Stages” issued by Bureau of Drug Policy & Administration of the People's Republic of China, and the relevant methods in “Methodology of Pharmaceutical Experiments”, Xu Shuyun et al. ed. 120 male Kunming mice weighting […] were allowed to grow 3 days. No abnormality was observed. The mice were routinely inoculated in oxter with mouse sarcoma S-180, and weighted 4 hrs. after inoculation. The mice were randomly divided into 12 groups, 10 mice/group. Group 1 was given 0.3 ml of physiological saline as negative control; Group 2 was given 5-FU as positive control, 0.6 mg/mouse; Group 3 was given hydroxycamptothecine as positive control, 0.02 mg/mouse. Groups 4, 5 and 6 were injected with 10% Compound 6, 0.4 ml/mouse, 0.2 ml/mouse, and 0.1 ml/mouse, respectively. Groups 7, 8 and 9 were injected with 10% Compound 8, 0.4 ml/mouse, 0.2 ml/mouse, and 0.1 ml/mouse, respectively. Groups 10, 11, and 12 were injected with 10% Compound 20, 0.4 ml/mouse, 0.2 ml/mouse, and 0.1 ml/mouse, respectively. The tested compounds were administered on the next day after inoculation, once a day on alternate days, 6 doses totally administered. On the next day after the end dose, the mice were weighed and sacrificed. After the tumor was excised, body weight and tumor weight were recorded. The tumor inhibition rate was calculated based on the following formula: [(average tumor weight of the control groups−average tumor weight of the experimental groups)/average tumor weight of the control groups]×100%. The data was processed statistically. The above experiments were repeated three times.
# (§2) The experiments were identical with the experiments for activity against mouse grafted sarcoma S-180, except the following:
# (1) the tumor cell line inoculated was mouse lung cancer Lewis;
# (2) Compound 6, Compound 8 and Compound 21 were not tested for their activity;
# (3) the mice were divided into six groups.
# [3] = test system: mouse grafted sarcoma S-180; test: Activity against mouse grafted sarcoma S-180; format: in vivo, Kunming mice; settings: 1 mg/kg i.v., 6 doses; for Tumor weight: X ± SD, n = 10
# Protocol: (1) Experimental animals: Kunming mice weighting 18-22 g;
# (2) 100 mg/ml solutions of the 3 compounds were prepared, respectively, in water for injection (1% surface surfactant was added into the solution of Compound 6). 5-FU and camptothecine, 30 mg/kg and 1 mg/kg, respectively, were used as positive controls;
# 3. Route of Administration: Intravenous Injection.
# as §1
# [4] = test system: mouse grafted uterine cervix cancer U14; test: Activity against mouse grafted uterine cervix cancer U14; format: in vivo, Kunming mice; settings: 1 mg/kg; for Tumor weight: X ± SD, n = 10
# Protocol: as §1, §2
# (1) the tumor cell line inoculated was mouse grafted uterine cervix cancer U14;
# (2) all the mice were female.
# [5] = test system: mouse grafted liver cancer H22; test: Activity against mouse grafted liver cancer H22; format: in vivo, Kunming mice; settings: for Tumor weight: X ± SD, n = 10
# Protocol: as §1
# The experiments were identical with the experiments for activity against mouse grafted sarcoma S-180, except that the cell line inoculated was liver cancer H22. The experiments were repeated three times.
# [6] = test system: HL-60 human promyelocytic leukemia; test: In vitro inhibition rate to tumor cells (MTT), HL-60; format: cell-based; settings: 50 μg/ml
# Protocol: (§3) (1) Single cell suspension was seeded into 96-well plates (×3) (the cells was diluted in the PRMI-1640 minimum medium to 3×10^4 cells/ml, […] diluted cells/well). […] The experiments were performed in quadruplicate.
# (§4) (2) The medium was removed. Solutions of the anti-tumor agents (15 compounds) were prepared in a freshly prepared medium at the concentrations indicated in the following Table. […] of the solution was added into each well. Incubation was continued for 48 hours.
# (§5) (3) […] of 2 mg/ml MTT was added into each well, and incubated for 4 hours.
# (§6) (4) The medium was removed from the well. The microplates were swiftly turned down to throw-off the medium. […] DMSO was added into each well, and vortexed at room temperature for 10 minutes.
# (§7) (5) OD value (λ=570 nm) was measured with an Enzyme-Linked Detector.
# (§8) (6) The inhibition rates (IR) of cell growth were respectively calculated based on the following equation: IR(%)=[1−(average OD of the experimental group/average OD of the control group)]×100%
# [7] = test system: U-937 human histocytic lymphoma; test: In vitro inhibition rate to tumor cells (MTT), U-937; format: cell-based; settings: 50 μg/ml
# Protocol: as §3, §4, §5, §6, §7, §8
# [8] = test system: SMMC-7721 human hepatic carcinoma; test: In vitro inhibition rate to tumor cells (MTT), SMMC-7721; format: cell-based; settings: 50 μg/ml
# Protocol: as §3, §4, §5, §6, §7, §8
# [9] = test system: Hela human cervical carcinoma; test: In vitro inhibition rate to tumor cells (MTT), Hela; format: cell-based; settings: 50 μg/ml
# Protocol: as §3, §4, §5, §6, §7, §8
# [10] = test system: LLC mouse Lewis lung carcinoma; test: In vitro inhibition rate to tumor cells (MTT), LLC; format: cell-based; settings: 50 μg/ml
# Protocol: as §3, §4, §5, §6, §7, §8
# [11] = test system: A-549 human lung adenocarcinoma; test: In vitro inhibition rate to tumor cells (MTT), A-549; format: cell-based; settings: 50 μg/ml
# Protocol: as §3, §4, §5, §6, §7, §8
# [12] = test system: MCF-7 human mammary adenocarcinoma; test: In vitro inhibition rate to tumor cells (MTT), MCF-7; format: cell-based; settings: 50 μg/ml
# Protocol: as §3, §4, §5, §6, §7, §8
# [13] = test system: Bel-7402 human hepatic carcinoma; test: In vitro inhibition rate to tumor cells (MTT), Bel-7402; format: cell-based; settings: 50 μg/ml
# Protocol: as §3, §4, §5, §6, §7, §8
# [14] = H22, first experiment, 1 mg/kg i.v., 6 doses
# [15] = H22, second experiment, 1 mg/kg
compound,measurement,setting,value
CC(C)(C)NC(=O)[C@@H]1CN(Cc2cccnc2)CCN1C[C@@H](O)C[C@@H](Cc1ccccc1)C(=O)N[C@H]1c2ccccc2C[C@H]1O [indinavir],inhibition at 0.01 µM,[1],92.1%
CC[C@@]1(O)C(=O)OCc2c1cc1n(c2=O)Cc2cc3cc(O)ccc3nc2-1 [Hydioxycamptothecine],Average weight (g)-after administration,[2]; first experiment,21.0 g
same,Inhibition rate (%),[2]; first experiment,49.7%
same,Tumor weight,[2]; first experiment,1.50 ± 0.28 g
hydroxycamptothecine [reference compound],Average weight (g)-after administration,"[3]; S-180, first experiment",20.8 g
same,Inhibition rate (%),"[3]; S-180, first experiment",65.2%
same,Tumor weight,"[3]; S-180, first experiment",0.87 ± 0.28 g
same,Average weight(g)-after administration,"[3]; S-180, second experiment",20.8 g
same,Inhibition rate (%),"[3]; S-180, second experiment",64.6%
same,Tumor weight,"[3]; S-180, second experiment",0.92 ± 0.38 g
same,Average weight (g)-after administration,[2]; second experiment,21.0 g
same,Inhibition rate (%),[2]; second experiment,50.2%
same,Tumor weight,[2]; second experiment,1.20 ± 0.28 g
same,Average weight (g)-after administration,[2]; third experiment,21.5 g
same,Inhibition rate (%),[2]; third experiment,51.9%
same,Tumor weight,[2]; third experiment,1.30 ± 0.28 g
same,Average weight(g)-after administration,"[4]; U14, first experiment",22.2 g
same,Inhibition rate (%),"[4]; U14, first experiment",45.8%
same,Tumor weight,"[4]; U14, first experiment",1.90 ± 0.28 g
same,Average weight(g)-after administration,"[4]; U14, second experiment",22.3 g
same,Inhibition rate (%),"[4]; U14, second experiment",46.5%
same,Tumor weight,"[4]; U14, second experiment",1.82 ± 0.28 g
same,Average weight (g)-after administration,"[4]; U14, third experiment",21.3 g
same,Inhibition rate (%),"[4]; U14, third experiment",45.6%
same,Tumor weight,"[4]; U14, third experiment",1.96 ± 0.28 g
same,Average weight(g)-after administration,[5]; [14],20.5 g
same,Inhibition rate (%),[5]; [14],63.9%
same,Tumor weight,[5]; [14],1.12 ± 0.28 g
same,Average weight(g)-after administration,[5]; [15],20.2 g
same,Inhibition rate (%),[5]; [15],66.9%
same,Tumor weight,[5]; [15],1.00 ± 0.28 g
same,Average weight (g)-after administration,"[5]; H22, third experiment, 1 mg/kg",22.2 g
same,Inhibition rate (%),"[5]; H22, third experiment, 1 mg/kg",65.3%
same,Tumor weight,"[5]; H22, third experiment, 1 mg/kg",1.05 ± 0.28 g
"CC(C)C1CC23OC1(O)CC(C)(O[N+](=O)[O-])C2CCC3C (stereo not shown) [Compound 36, Curcumol mononitrate without double bond]","inhibition rate, Results (%) HL-60",[6]; Table 1,1.03%
same,"inhibition rate, Results (%) HL-60",[6]; Table 2 (repeated screening),2.01%
same,"inhibition rate, Results (%) U-937",[7]; Table 1,6.98%
same,"inhibition rate, Results (%) U-937",[7]; Table 2 (repeated screening),5.32%
same,"inhibition rate, Results (%) SMMC-7721",[8]; Table 1,15.39%
same,"inhibition rate, Results (%) SMMC-7721",[8]; Table 2 (repeated screening),14.08%
same,"inhibition rate, Results (%) Hela",[9]; Table 1,62.13%
same,"inhibition rate, Results (%) Hela",[9]; Table 2 (repeated screening),65.23%
same,"inhibition rate, Results (%) LLC",[10]; Table 1,11.56%
same,"inhibition rate, Results (%) LLC",[10]; Table 2 (repeated screening),11.56%
same,"inhibition rate, Results (%) A-549",[11]; Table 1,9.21%
same,"inhibition rate, Results (%) A-549",[11]; Table 2 (repeated screening),1.20%
same,"inhibition rate, Results (%) MCF-7",[12]; Table 1,−1.23%
same,"inhibition rate, Results (%) MCF-7",[12]; Table 2 (repeated screening),−2.31%
same,"inhibition rate, Results (%) Bel-7402",[13]; Table 1,0.22%
same,"inhibition rate, Results (%) Bel-7402",[13]; Table 2 (repeated screening),0.02%
"CC(C)C1CC23OC1(O)CC(CN1CCNCC1)(N1CCNCC1)C2CCC3C.Cl (stereo not shown) [Compound 42, Curcumol bispiperazine hydrochloride]","inhibition rate, Results (%) HL-60",[6]; Table 1,2.73%
same,"inhibition rate, Results (%) HL-60",[6]; Table 2 (repeated screening),3.14%
same,"inhibition rate, Results (%) U-937",[7]; Table 1,−12.5%
same,"inhibition rate, Results (%) U-937",[7]; Table 2 (repeated screening),−1.03%
same,"inhibition rate, Results (%) SMMC-7721",[8]; Table 1,6.86%
same,"inhibition rate, Results (%) SMMC-7721",[8]; Table 2 (repeated screening),0.79%
same,"inhibition rate, Results (%) Hela",[9]; Table 1,55.64%
same,"inhibition rate, Results (%) Hela",[9]; Table 2 (repeated screening),54.03%
same,"inhibition rate, Results (%) LLC",[10]; Table 1,9.99%
same,"inhibition rate, Results (%) LLC",[10]; Table 2 (repeated screening),1.79%
same,"inhibition rate, Results (%) A-549",[11]; Table 1,10.16%
same,"inhibition rate, Results (%) A-549",[11]; Table 2 (repeated screening),3.12%
same,"inhibition rate, Results (%) MCF-7",[12]; Table 1,34.21%
same,"inhibition rate, Results (%) MCF-7",[12]; Table 2 (repeated screening),30.12%
same,"inhibition rate, Results (%) Bel-7402",[13]; Table 1,2.15%
same,"inhibition rate, Results (%) Bel-7402",[13]; Table 2 (repeated screening),14.36%
"C=C1CC2(OC(C)=O)OC3(CC2C(C)C)C(C)CCC13 (stereo not shown) [Compound 1, Curcumol acetate]","inhibition rate, Results (%) HL-60",[6]; Table 1,23.12%
same,"inhibition rate, Results (%) HL-60",[6]; Table 2 (repeated screening),12.03%
same,"inhibition rate, Results (%) U-937",[7]; Table 1,45.45%
same,"inhibition rate, Results (%) U-937",[7]; Table 2 (repeated screening),34.26%
same,"inhibition rate, Results (%) SMMC-7721",[8]; Table 1,23.10%
same,"inhibition rate, Results (%) SMMC-7721",[8]; Table 2 (repeated screening),28.23%
same,"inhibition rate, Results (%) Hela",[9]; Table 1,51.23%
same,"inhibition rate, Results (%) Hela",[9]; Table 2 (repeated screening),55.98%
same,"inhibition rate, Results (%) LLC",[10]; Table 1,1.30%
same,"inhibition rate, Results (%) LLC",[10]; Table 2 (repeated screening),1.30%
same,"inhibition rate, Results (%) A-549",[11]; Table 1,−9.16%
same,"inhibition rate, Results (%) A-549",[11]; Table 2 (repeated screening),−6.32%
same,"inhibition rate, Results (%) MCF-7",[12]; Table 1,45.6%
same,"inhibition rate, Results (%) MCF-7",[12]; Table 2 (repeated screening),41.02%
same,"inhibition rate, Results (%) Bel-7402",[13]; Table 1,32.12%
same,"inhibition rate, Results (%) Bel-7402",[13]; Table 2 (repeated screening),25.32%
